According to patent US4103028A, “Complement inhibitors” (American Cyanamid Company, priority 1977, dated 1978):
Structures can show the parent of a compound that is named as a salt.

Legend:
shunt pathway = experiment: Test, Code 036 (C-Shunt inhibitor), lysis of fragile human erythrocytes in autologous serum, cobra venom factor; type: biochemical; details: In vitro; well number of a two-fold serial dilution assay, higher well number indicates higher activity; NEG = negative
Source text: (§1) This test measures the ability of activated […] in the presence of C4 and appropriate dilutions of the test compound. An active inhibitor protects C2 from C1 and C4; (ii) Test, Code 035 (C3-C9 inhibitor) -- This test determines the ability of the late components of human complement (C3-C9) to lyse EAC 142 in the presence of appropriate dilutions of the test compound. An active inhibitor protects EAC 142 from lysis by human C3-C9; (iii) Test, Code 036 (C-Shunt inhibitor) -- In this test human erythrocytes rendered fragile are lysed in autologous serum via the shunt pathway activated by cobra venom factor in the presence of appropriate dilutions of the test compound. Inhibition of the shunt pathway results in failure of lysis; (iv) Forssman Vasculitis Test -- Here, the well known complement dependent lesion, Forssman vascultitis, is produced in guinea pigs by intradermal injection of rabbit anti-Forssman antiserum. The lesion is measured in terms of diameter, edema and hemorrhage and the extent to which a combined index of these is inhibited by prior intraperitoneal injection of the test compound at 200 mg/kg is then reported, unless otherwise stated; (v) Forssman Shock Test -- Lethal shock is produced in guinea pigs by an i.v. injection of anti-Forssman antiserum and the harmonic mean death time of treated guinea pigs is compared with that of simultaneous controls; (vi) Complement Level Reduction Test -- In this test, the above dosed quinea pigs, or others, are bled for serum and the complement level is determined in undiluted serum by the capillary tube method of U.S. Pat. No. 3,876,376 and compared to undosed control guinea pigs; and (vii) Cap 50 Test -- Here, appropriate amounts of the test compound are added to a pool of guinea pig serum in vitro, after which the undiluted serum capillary tube assay referred to above is run. The concentration of compound inhibiting 50% is reported.

[1] = system: Forssman vasculitis in guinea pigs; experiment: Forssman Vasculitis Test; parameters: species or system guinea pig; details: In vivo, inhibition of combined index of lesion diameter, edema and hemorrhage, prior intraperitoneal injection at 200 mg/kg unless otherwise stated
Source text: as §1

[2] = system: late components of human complement (C3-C9); experiment: Test, Code 035 (C3-C9 inhibitor), lysis of EAC 142; type: biochemical; details: In vitro; well number of a two-fold serial dilution assay, higher well number indicates higher activity; NEG = negative
Source text: as §1

[3] = system: complement level in undiluted serum; experiment: Complement Level Reduction Test; parameters: species or system guinea pig; details: In vivo, dosed guinea pigs bled for serum; capillary tube method, compared to undosed control guinea pigs
Source text: as §1

C1 = target: T1, C1 (Homo sapiens, UniProt P09871); experiment: Test, Code 026 (C1 inhibitor), serial dilution assay; type: biochemical; details: In vitro; well number of a two-fold serial dilution assay, higher well number indicates higher activity; NEG = negative
T1 sequence (P09871 16-437 limits assumed): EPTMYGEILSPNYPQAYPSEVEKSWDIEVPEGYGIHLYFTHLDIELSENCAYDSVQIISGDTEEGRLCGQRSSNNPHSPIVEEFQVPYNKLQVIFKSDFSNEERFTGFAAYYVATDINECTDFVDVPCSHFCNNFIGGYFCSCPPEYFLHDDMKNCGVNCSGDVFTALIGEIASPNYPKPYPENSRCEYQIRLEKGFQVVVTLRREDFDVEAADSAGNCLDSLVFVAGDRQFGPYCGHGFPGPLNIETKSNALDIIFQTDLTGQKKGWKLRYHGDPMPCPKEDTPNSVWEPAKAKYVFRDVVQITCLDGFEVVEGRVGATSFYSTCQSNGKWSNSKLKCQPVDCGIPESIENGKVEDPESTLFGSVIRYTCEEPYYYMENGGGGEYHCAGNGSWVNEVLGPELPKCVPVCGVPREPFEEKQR
T1 sequence (P09871 438-688 limits assumed): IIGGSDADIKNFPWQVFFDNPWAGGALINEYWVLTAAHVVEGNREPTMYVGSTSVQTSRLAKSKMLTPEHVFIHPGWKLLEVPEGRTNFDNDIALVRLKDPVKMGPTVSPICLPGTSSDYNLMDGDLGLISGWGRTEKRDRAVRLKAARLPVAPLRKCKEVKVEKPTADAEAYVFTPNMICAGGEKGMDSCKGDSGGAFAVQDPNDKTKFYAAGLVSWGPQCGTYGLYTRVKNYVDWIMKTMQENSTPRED
Source text: as §1

Compound | 036 (activity in wells) (shunt pathway) | Forssman [1] | 035 (activity in wells) [2] | % Reduction Complement [3] | 026 (activity in wells) (C1)
O=C(Nc1cccc(C(=O)Nc2cc3c(O)cc(S(=O)(=O)O)cc3cc2S(=O)(=O)O)c1)Nc1cccc(C(=O)Nc2cc3c(O)cc(S(=O)(=O)O)cc3cc2S(=O)(=O)O)c1 [3,3'-[Ureylenebis (m-phenylenecarbonylimino)]bis[5-hydroxy-2,7-naphthalenedisulfonic acid]tetrasodium salt] | 2 | 35 | 2 | -31% | 5
Cc1ccc(C(=O)Nc2cc(S(=O)(=O)O)cc3cc(S(=O)(=O)O)cc(O)c23)cc1N [4-(3-Amino-p-toluamido)-5-hydroxy-2,7-naphthalenedisulfonic acid, disodium salt] | NEG |  | NEG |  | 5
Cc1cc(C(=O)Nc2cc(S(=O)(=O)O)cc3cc(S(=O)(=O)O)cc(O)c23)ccc1N [4-(4-Amino-m-toluamido)-5-hydroxy-2,7-naphthalenedisulfonic acid, disodium salt] | NEG | 17 | NEG | +12% | 5
Cc1ccc(N)cc1C(=O)Nc1cc(S(=O)(=O)O)cc2cc(S(=O)(=O)O)cc(O)c12 [4-(5-Amino-o-toluamido)-5-hydroxy-2,7-naphthalenedisulfonic acid, disodium salt] | NEG |  | NEG |  | 2
Cc1ccc(C(=O)Nc2cc(S(=O)(=O)O)cc3cc(S(=O)(=O)O)cc(O)c23)cc1[N+](=O)[O-] [4-Hydroxy-5-(3-nitro-p-toluamido)-2,7-naphthalenedisulfonic acid, disodium salt] | NEG |  | NEG |  | 3
Cc1cc(C(=O)Nc2cc(S(=O)(=O)O)cc3cc(S(=O)(=O)O)cc(O)c23)ccc1[N+](=O)[O-] [4-Hydroxy-5-(4-nitro-3-toluamido)-2,7-naphthalenedisulfonic acid, disodium salt] | NEG | 48 | NEG | -20% | 2
Cc1ccc([N+](=O)[O-])cc1C(=O)Nc1cc(S(=O)(=O)O)cc2cc(S(=O)(=O)O)cc(O)c12 [4-Hydroxy-5-(5-nitro-o-toluamido)-2,7-naphthalenedisulfonic acid, disodium salt] | NEG | 10 | NEG | -17% | 2
Cc1ccc(NC(=O)Nc2cccc(C(=O)Nc3cc(S(=O)(=O)O)cc4cc(S(=O)(=O)O)cc(O)c34)c2)cc1[N+](=O)[O-] [4-Hydroxy-5-m-[3-(3-nitro-p-tolyl)ureido]benzamido-2,7-naphthalenedisulfonic acid, disodium salt] | NEG | 15 | NEG | +46% | NEG
O=C(Nc1cccc(C(=O)Nc2cc(S(=O)(=O)O)cc3cc(S(=O)(=O)O)cc(O)c23)c1)Nc1cccc(C(F)(F)F)c1 [4-Hydroxy-5-m-[3-(α,α,α-trifluoro-m-tolyl)ureido]benzamido-2,7-naphthalenedisulfonic acid, disodium salt] | NEG | 5 | NEG | -6% | 1
O=C(Nc1ccc(S(=O)(=O)F)cc1)Nc1cccc(C(=O)Nc2cc(S(=O)(=O)[O-])cc3cc(S(=O)(=O)[O-])cc(O)c23)c1.[Na+].[Na+] [4-{m-{3-[p-(Fluorosulfonyl)phenyl]ureido}benzamido}-5-hydroxy-2,7-naphthalenedisulfonic acid, disodium salt] | NEG |  | NEG |  | 4
O=C(Nc1cccc(C(=O)Nc2cc(S(=O)(=O)[O-])cc3cc(S(=O)(=O)[O-])cc(O)c23)c1)Nc1cccc(C(=O)Nc2cc(S(=O)(=O)[O-])cc3cc(S(=O)(=O)[O-])cc(O)c23)c1.[Na+].[Na+].[Na+].[Na+] [5,5'-[Ureylenebis(m-phenylenecarbonylimino)]bis[4-hydroxy-2,7-naphthalenedisulfonic acid] tetrasodium salt] | 2 |  | 1 |  | 6
